The text below walks through data of PubChem BioAssay (NCI).

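Five concentrations, 48 hours, 96-well plates. TGI: total growth inhibition.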

Common to all, as to assay: NCI anticancer screen, dose series, 48 h
For assay [1], the system named is OVCAR-3 ovarian.
Assay [2] relates to TK-10 renal.
In assay [3] the test system is U251 CNS.
Assay [4] deals with OVCAR-5 ovarian.
Assay [5] deals with RPMI-8226 leukemia.
The subject of assay [6] is NCI-H23 lung.
Assay [7] has as its system NCI-H226 lung.
Assay [8] has as its system MDA-MB-435.
The test system of assay [9] is HL-60(TB) leukemia.
The subject of assay [10] is LOX IMVI melanoma.
Assay [11] has as its system MOLT-4 leukemia.
Assay [12] concerns SW-620 colon.
Assay [13] concerns HS 578T breast.
For assay [14], the system named is PC-3 prostate.
The subject of assay [15] is SNB-75 CNS.
Assay [16] deals with KM12 colon.
The test system of assay [17] is K-562 leukemia.
Assay [18] deals with A498 renal.
The test system of assay [19] is SNB-19 CNS.
The test system of assay [20] is SN12C renal.

On to `CCOc1cc(C2SCC(=O)N2c2ccc3c(c2)Oc2c(Cl)c4c(c(Cl)c2=N3)Oc2cc(N3C(=O)CSC3c3ccc(O)c(OCC)c3)ccc2N=4)ccc1O` (stereo not drawn), for which the TGI is over 100 µM in [1]; over 100 µM in [2]; over 100 µM in [3]; over 100 µM in assay [4]; over 100 µM in assay [5]; 47.6 µM in assay [6]. In addition, the TGI in [7] was 66.2 µM; in assay [8], over 100 µM; in assay [9] it was over 100 µM; in assay [10] it was over 100 µM; in assay [11], over 100 µM; in assay [12] it was over 100 µM. The TGI in [13] is over 100 µM; in assay [14] it was over 100 µM; in assay [15] it was 50.5 µM; in assay [16] it was over 100 µM; in assay [17] it was over 100 µM; in [18] it was over 100 µM.
As to `O=C(O)c1ccccc1/C=C1/Cc2ccc3c(c2C1=O)CCC3`, the TGI in assay [1] is 95.2 µM; in [2] it was over 100 µM; in assay [3], over 100 µM; in assay [4], over 100 µM; in assay [5] it was 57.4 µM; in assay [6] it was 96 µM. Further, the TGI in [7] was 90.8 µM; in [8], 74.9 µM; in [9], 48 µM; in [10] it was 39.5 µM; in assay [19], over 100 µM; in assay [11] it was over 100 µM. The TGI in assay [12], in assay [20], in [13], in [14], in assay [15] and in [16] was over 100 µM throughout. Also, the TGI in assay [17] and in [18] was over 100 µM in each case.
`CCO[C@H]1O[C@@H]2OC3(C)CCC4[C@H](C)CCC([C@H]1C)[C@]42OO3` (stereo partly drawn): the TGI in assay [1] is 99.8 µM; in assay [2], over 100 µM; in [3], over 100 µM; in [4], over 68.6 µM; in [5] it was over 100 µM; in [6], over 100 µM. Moreover, the TGI is over 100 µM in assay [7]; over 100 µM in assay [8]; 13.2 µM in [9]; over 100 µM in [10]; over 100 µM in [19]; over 100 µM in assay [11]. Further, the TGI in [12], in assay [20], in assay [13], in assay [14], in assay [15] and in assay [16] was over 100 µM in each case. The TGI in [17] and in [18] was over 100 µM in each case.
On to `O=C1/C(=C/c2ccccc2)CCc2ccc([N+](=O)[O-])cc21`, for which the TGI in [1] was over 100 µM; in assay [2], over 100 µM; in assay [3] it was over 100 µM; in assay [4], over 100 µM; in assay [5] it was 7.13 µM; in assay [6] it was over 100 µM. The TGI in assay [7] is over 100 µM; in [8], over 100 µM; in [9], over 100 µM; in [10], over 100 µM; in assay [19] it was 91.3 µM; in [11], over 100 µM. Further, the TGI in assay [12] is over 100 µM; in assay [20] it was over 100 µM; in assay [13], over 100 µM; in assay [14], over 100 µM; in [15], over 74.6 µM; in assay [16], over 100 µM. Also, the TGI in [17] and in assay [18] was over 100 µM in each case.
In the case of `CC(=O)C1C(=O)C(C(C)=O)C2C3C=CC(C3)C12` (stereo not drawn), the TGI in assay [1], in [2], in assay [3], in [4], in assay [5] and in assay [6] was over 100 µM throughout. Besides, the TGI in assay [7], in assay [8], in [9], in assay [10], in [19] and in assay [11] was over 100 µM each time. Further, the TGI in assay [12], in assay [20], in [13], in assay [14], in assay [15] and in assay [16] was over 100 µM each time. Moreover, the TGI in assay [17] and in [18] was over 100 µM each time.
`COn1oc(=O)c2ccccc21`: the TGI in assay [1], in [2], in assay [3], in assay [4], in [5] and in assay [6] was over 100 µM throughout. The TGI in assay [7], in assay [8], in assay [9], in [10], in assay [19] and in assay [11] was over 100 µM throughout. The TGI in assay [12], in [20], in assay [13], in assay [14], in [15] and in assay [16] was over 100 µM in each case. For the same compound, the TGI in assay [17] and in assay [18] was over 100 µM in each case.
As for `CC(=O)Nn1cnc(C(=N)C#N)c1N`, the TGI in assay [1], in assay [2], in assay [3], in assay [4], in assay [5] and in assay [6] was over 100 µM each time. For the same compound, the TGI in assay [7], in assay [8], in [9], in assay [10], in assay [19] and in assay [11] was over 100 µM throughout. Moreover, the TGI in assay [12], in [20], in [13], in assay [14], in [15] and in [16] was over 100 µM throughout. In addition, the TGI in assay [17] and in assay [18] was over 100 µM throughout.
